Experimental data as given in patent US20260138961A1, “MODULATORS OF MITOCHONDRIAL DNA REPLICATION” (Pretzel Therapeutics, Inc., priority 2022, published 2026).

Molecular target: T1, POLγA:A467T (Homo sapiens, UniProt P54098, A467T)
T1 sequence (P54098 1-1239 A467T): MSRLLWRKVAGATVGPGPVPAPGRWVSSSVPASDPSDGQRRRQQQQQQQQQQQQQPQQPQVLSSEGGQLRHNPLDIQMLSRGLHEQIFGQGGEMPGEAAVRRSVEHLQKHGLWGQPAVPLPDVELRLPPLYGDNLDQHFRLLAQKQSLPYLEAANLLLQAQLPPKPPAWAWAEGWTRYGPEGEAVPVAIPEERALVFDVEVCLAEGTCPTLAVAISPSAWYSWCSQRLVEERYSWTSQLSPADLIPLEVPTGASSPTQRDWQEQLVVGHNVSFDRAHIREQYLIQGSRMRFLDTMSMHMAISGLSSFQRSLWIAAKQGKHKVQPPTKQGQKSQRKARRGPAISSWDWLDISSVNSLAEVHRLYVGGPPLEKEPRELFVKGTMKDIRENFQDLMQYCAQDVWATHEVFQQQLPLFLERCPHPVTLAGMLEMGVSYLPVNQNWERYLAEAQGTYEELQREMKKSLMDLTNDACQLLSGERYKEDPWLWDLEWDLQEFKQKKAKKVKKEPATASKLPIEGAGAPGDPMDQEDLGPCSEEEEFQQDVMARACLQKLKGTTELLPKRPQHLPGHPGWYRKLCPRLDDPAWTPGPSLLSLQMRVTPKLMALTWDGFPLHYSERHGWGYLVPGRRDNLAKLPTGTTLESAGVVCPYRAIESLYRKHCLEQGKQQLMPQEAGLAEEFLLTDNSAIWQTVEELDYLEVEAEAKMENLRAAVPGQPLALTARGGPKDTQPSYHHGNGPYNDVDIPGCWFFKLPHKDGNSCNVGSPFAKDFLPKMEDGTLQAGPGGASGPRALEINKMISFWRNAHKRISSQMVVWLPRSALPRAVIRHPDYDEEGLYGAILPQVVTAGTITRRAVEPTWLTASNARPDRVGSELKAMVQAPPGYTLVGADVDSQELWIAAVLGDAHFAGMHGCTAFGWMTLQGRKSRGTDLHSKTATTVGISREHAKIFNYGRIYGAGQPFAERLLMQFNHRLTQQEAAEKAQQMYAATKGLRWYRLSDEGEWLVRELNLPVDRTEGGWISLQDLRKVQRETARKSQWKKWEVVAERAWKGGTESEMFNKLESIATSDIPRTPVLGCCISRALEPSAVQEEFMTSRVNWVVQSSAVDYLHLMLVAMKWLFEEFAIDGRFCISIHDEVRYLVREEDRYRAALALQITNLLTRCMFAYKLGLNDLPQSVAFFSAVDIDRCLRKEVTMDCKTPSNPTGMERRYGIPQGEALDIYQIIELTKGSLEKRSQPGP
T1 sequence (Q9UHN1 1-485 partner): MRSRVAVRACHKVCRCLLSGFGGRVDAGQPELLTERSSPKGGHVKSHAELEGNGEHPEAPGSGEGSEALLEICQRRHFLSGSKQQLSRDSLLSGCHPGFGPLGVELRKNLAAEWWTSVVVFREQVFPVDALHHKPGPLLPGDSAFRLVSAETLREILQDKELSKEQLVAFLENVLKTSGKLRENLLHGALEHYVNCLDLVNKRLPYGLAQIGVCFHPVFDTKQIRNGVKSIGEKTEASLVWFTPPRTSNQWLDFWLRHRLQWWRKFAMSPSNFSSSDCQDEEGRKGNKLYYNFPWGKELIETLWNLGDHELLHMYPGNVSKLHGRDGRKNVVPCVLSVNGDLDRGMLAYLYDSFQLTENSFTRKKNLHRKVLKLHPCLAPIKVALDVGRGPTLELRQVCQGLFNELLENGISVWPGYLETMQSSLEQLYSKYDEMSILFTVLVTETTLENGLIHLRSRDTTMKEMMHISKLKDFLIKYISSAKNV
Test: DNA polymerization assay, POLγA:A467T mutant
Format: biochemical
Conditions: stimulation of polymerase activity, primed M13mp18 ssDNA, 37° C. 2 hours; read-out: A467T AC50

AC50 [µM]	SMILES
> 100	Cc1cc(S(=O)(=O)Nc2cn(Cc3ccccc3)cn2)c(C)cc1Cl [Example 168, N-(1-benzyl-1H-imidazol-4-yl)-4-chloro-2,5-dimethylbenzenesulfonamide]
> 100	Cc1cc(S(=O)(=O)Nc2cn(-c3ccccc3)cn2)c(C)cc1Cl [Example 169, 4-chloro-2,5-dimethyl-N-(1-phenyl-1H-imidazol-4-yl)benzenesulfonamide]
> 10	Cc1cc(S(=O)(=O)Nc2cn(C)c(-c3ccccc3)n2)c(C)cc1Cl [Example 170, 4-chloro-2,5-dimethyl-N-(1-methyl-2-phenyl-1H-imidazol-4-yl)benzenesulfonamide]
> 10	Cc1cc(S(=O)(=O)Nc2cnn(-c3ccccc3)n2)c(C)cc1Cl [Example 171, 4-chloro-2,5-dimethyl-N-(2-phenyl-2H-1,2,3-triazol-4-yl)benzenesulfonamide]
> 10	Cc1cc(S(=O)(=O)Nc2csc(C(=O)N(C)CC(N)=O)n2)c(C)cc1Cl [Example 172, N-(2-amino-2-oxoethyl)-4-((4-chloro-2,5-dimethylphenyl)sulfonamido)-N-methylthiazole-2-carboxamide]
2	Cc1cc(S(=O)(=O)Nc2csc(-c3ccccn3)n2)c(C)cc1Cl [Example 173, 4-chloro-2,5-dimethyl-N-(2-(pyridin-2-yl)thiazol-4-yl)benzenesulfonamide]
2	Cc1cc(S(=O)(=O)Nc2csc(C(=O)N3CCC[C@H]3C)n2)c(C)cc1Cl [Example 174, (R)-4-chloro-2,5-dimethyl-N-(2-(2-methylpyrrolidine-1-carbonyl)thiazol-4-yl)benzenesulfonamide]
3	Cc1cc(S(=O)(=O)Nc2csc(C(=O)N3CCC[C@@H]3C)n2)c(C)cc1Cl [Example 175, (S)-4-chloro-2,5-dimethyl-N-(2-(2-methylpyrrolidine-1-carbonyl)thiazol-4-yl)benzenesulfonamide]
> 100	Cc1cc(S(=O)(=O)Nc2csc(-c3ccncc3)n2)c(C)cc1Cl [Example 176, 4-chloro-2,5-dimethyl-N-(2-(pyridin-4-yl)thiazol-4-yl)benzenesulfonamide]
> 100	Cc1cc(S(=O)(=O)Nc2csc(C(=O)N(CC(N)=O)C3CCCC3)n2)c(C)cc1Cl [Example 177, N-(2-amino-2-oxoethyl)-4-((4-chloro-2,5-dimethylphenyl)sulfonamido)-N-cyclopentylthiazole-2-carboxamide]
> 100	Cc1cc(S(=O)(=O)Nc2csc(-n3cccn3)n2)c(C)cc1Cl [Example 178, N-(2-(1H-pyrazol-1-yl)thiazol-4-yl)-4-chloro-2,5-dimethylbenzenesulfonamide]
> 100	Cc1cc(S(=O)(=O)Nc2csc(C(=O)N(CC(N)=O)C3CCCCC3)n2)c(C)cc1Cl [Example 179, N-(2-amino-2-oxoethyl)-4-((4-chloro-2,5-dimethylphenyl)sulfonamido)-N-cyclohexylthiazole-2-carboxamide]
> 10	Cc1cc(S(=O)(=O)Nc2nc(-c3ccccc3)n(C)n2)c(C)cc1Cl [Example 180, 4-chloro-2,5-dimethyl-N-(1-methyl-5-phenyl-1H-1,2,4-triazol-3-yl)benzenesulfonamide]
> 10	Cc1cc(S(=O)(=O)Nc2csc(-c3ccn(C)n3)n2)c(C)cc1Cl [Example 181, 4-chloro-2,5-dimethyl-N-(2-(1-methyl-1H-pyrazol-3-yl)thiazol-4-yl)benzenesulfonamide]
6	Cc1cc(S(=O)(=O)Nc2csc(-c3cnn(C)c3)n2)c(C)cc1Cl [Example 183, 4-chloro-2,5-dimethyl-N-(2-(1-methyl-1H-pyrazol-4-yl)thiazol-4-yl)benzenesulfonamide]
33	Cc1cc2cc(NS(=O)(=O)c3cc(C)c(Cl)cc3C)ccc2[nH]1 [Example 184, 4-chloro-2,5-dimethyl-N-(2-methyl-1H-indol-5-yl)benzenesulfonamide]
